Assay results published in article PMC6848974 (Science translational medicine, 2019).

Test system: A/WSN/33-nanoLuc or Ca/09
Format: cell-based, influenza A virus

## O=c1nc(NO)ccn1[C@@H]1O[C@H](CO)[C@@H](O)[C@H]1O [NHC, N^4-hydroxycytidine]
  drug concentration resulting in virus extinction: ≥ 4 µM
  repeat exposure of NHC-experienced virus populations: again rapidly sterilizing
